Measured values as given in US20250122207A1, “AP2 ASSOCIATED KINASE 1 INHIBITORS AND USES THEREOF” (Satellos Bioscience Inc., priority 2023, published 2025).
Where two headings read alike, the source gives them in different places.

Columns and labels:
[1] = target: T1, AAK1 (amino acids T27-A365) (Homo sapiens, UniProt Q2M2I8); assay: AAK1 pSENs assay; type: biochemical; settings: read-out: AAK1 pSENs: EIC50
T1 construct: against AAK1 (amino acids T27-A365); 6His (N, cleaved yes)
Procedure, shortened: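 Biotinylated, tag-free AAK1 T27-A365 expressed in E. coli was held at 20 nM in enzyme solution (HEPES pH 7.5, 10 mM MgCl2, DTT, EGTA, Brij35, BSA) and preincubated with compound for 15 min at 25 °C. The reaction was started with an equal volume of substrate solution containing 30 uM AQT0759 peptide and 70 uM ATP. IC50 determined.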

AAK1 = AAK1 (Homo sapiens, UniProt Q2M2I8); assay: pAP2M1 cell-based assay (in-cell Western); settings: Hela cells co-transfected with AP2M1 and AAK1, 3 hr treatment, read-out: AAK1 In-cell Western: IC50
Text: pAP2M1 Cell-Based Assay (in-Cell Western):
The plate was read on Licor Odyssey CLx imaging system (LICOR) to acquire fluorescence intensity at 700 channel and 800 channel.
Data analysis: Fluorescence intensity at 700 channel served as internal standard and 800 channel were normalized with 700 channel.

[2] = target: T2, BIKE (amino acids S38-E345) (K320A, K321A) (Homo sapiens, UniProt Q9NSY1, K320A/K321A); assay: BIKE pSENs assay; type: biochemical; settings: read-out: BIKE pSENs: IC50
T2 construct: against BIKE (amino acids S38-E345) (K320A, K321A); 6His (N, cleaved yes)
Procedure, shortened: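 E. coli-expressed, biotinylated, tag-free BIKE at 20 nM in HEPES pH 7.5 buffer with 10 mM MgCl2 preincubated with compound 15 min at 25° C. Reaction started with 30 uM AQT0759 sensor peptide and 40 uM ATP (concentrations before 1:1 mixing).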

[3] = target: T3, GAK (amino acids Q25-N335) (Homo sapiens, UniProt O14976); assay: GAK pSENs assay; type: biochemical; settings: read-out: GAK pSENs:IC50
T3 construct: against GAK (amino acids Q25-N335); 6His (N, cleaved yes)
T3 sequence (O14976 25-335): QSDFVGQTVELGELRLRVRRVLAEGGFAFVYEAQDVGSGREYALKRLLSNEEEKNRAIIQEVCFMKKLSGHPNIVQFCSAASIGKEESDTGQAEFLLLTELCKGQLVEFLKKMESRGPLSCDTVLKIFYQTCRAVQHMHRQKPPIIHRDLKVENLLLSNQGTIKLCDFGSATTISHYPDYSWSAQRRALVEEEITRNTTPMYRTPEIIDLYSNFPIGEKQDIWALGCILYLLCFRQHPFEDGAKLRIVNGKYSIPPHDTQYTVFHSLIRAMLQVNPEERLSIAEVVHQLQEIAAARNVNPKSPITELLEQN
Procedure: The recombinant proteins were independently expressed in Escherichia coli BL21(DE3) cells cultured in Luria-Bertani (LB) medium until OD600 reached 0.6-0.8, then cooled to 15° C. and supplemented with 0.5 mM isopropyl 1-thio-D-galactopyranoside (IPTG) induce protein expression 16 h. Cells were harvested and resuspended in lysis buffer (50 mM HEPES pH 7.5, 500 mM NaCl, 5 mM imidazole, 5% glycerol, 0.5 mM Tris (2-carboxyethyl) phosphine (TCEP), cOmplete Protease Inhibitor Tablet (Roche)) and lysed by microfludics high pressure homogenizer (UH-06, Union-Biotech). Proteins were purified using […] chromatography (His FF column, Bestchrom) and eluted stepwise in binding buffer with 20-300 mM imidazole. Removal of the hexahistidine tag was performed at 4° C. overnight using recombinant TEV protease and reacted with BirA to obtain the corresponding biotinylated-AAK1, BIKE or GAK proteins. Further separated in the reverse Strep column (Strep-Tactin® XT, IBA). The Biotin elution sample was collected containing untagged biotinylated protein was then purified by Ion-exchange chromatography (Mono Q 10/100 GL, Cytiva) and Size-exclusion chromatography (HiLoad 16/600 Superdex 200 pg, Cytiva). The pure protein was stored in a storage buffer 50 mM HEPES (pH 7.5), 300 mM NaCl, 5% glycerol at −80° C. Protein were characterized by SDS-PAGE, LC-MS and aSEC.
This example describes one illustrative method for determining the IC50 of the compounds of the present invention against GAK (amino acids Q25-N335).

T1 sequence (Q2M2I8 27-365): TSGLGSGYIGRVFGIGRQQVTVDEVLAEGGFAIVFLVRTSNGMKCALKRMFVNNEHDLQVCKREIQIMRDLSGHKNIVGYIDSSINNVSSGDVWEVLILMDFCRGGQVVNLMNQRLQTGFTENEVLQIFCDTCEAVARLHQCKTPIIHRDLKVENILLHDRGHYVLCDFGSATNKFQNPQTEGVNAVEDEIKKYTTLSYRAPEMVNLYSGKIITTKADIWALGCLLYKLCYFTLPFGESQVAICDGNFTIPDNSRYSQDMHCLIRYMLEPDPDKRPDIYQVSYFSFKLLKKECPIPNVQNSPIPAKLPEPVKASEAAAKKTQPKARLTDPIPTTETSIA
T2 sequence (Q9NSY1 38-345 K320A/K321A): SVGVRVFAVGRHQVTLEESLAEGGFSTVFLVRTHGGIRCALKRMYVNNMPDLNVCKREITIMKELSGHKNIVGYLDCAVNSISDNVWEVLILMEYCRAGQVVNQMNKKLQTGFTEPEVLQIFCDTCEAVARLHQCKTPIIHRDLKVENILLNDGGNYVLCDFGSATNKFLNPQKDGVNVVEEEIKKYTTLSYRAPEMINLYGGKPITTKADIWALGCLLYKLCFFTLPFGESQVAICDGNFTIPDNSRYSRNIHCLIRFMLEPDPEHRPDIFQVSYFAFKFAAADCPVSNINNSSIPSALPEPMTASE
Sequence of AAK1 (Q2M2I8 whole entry): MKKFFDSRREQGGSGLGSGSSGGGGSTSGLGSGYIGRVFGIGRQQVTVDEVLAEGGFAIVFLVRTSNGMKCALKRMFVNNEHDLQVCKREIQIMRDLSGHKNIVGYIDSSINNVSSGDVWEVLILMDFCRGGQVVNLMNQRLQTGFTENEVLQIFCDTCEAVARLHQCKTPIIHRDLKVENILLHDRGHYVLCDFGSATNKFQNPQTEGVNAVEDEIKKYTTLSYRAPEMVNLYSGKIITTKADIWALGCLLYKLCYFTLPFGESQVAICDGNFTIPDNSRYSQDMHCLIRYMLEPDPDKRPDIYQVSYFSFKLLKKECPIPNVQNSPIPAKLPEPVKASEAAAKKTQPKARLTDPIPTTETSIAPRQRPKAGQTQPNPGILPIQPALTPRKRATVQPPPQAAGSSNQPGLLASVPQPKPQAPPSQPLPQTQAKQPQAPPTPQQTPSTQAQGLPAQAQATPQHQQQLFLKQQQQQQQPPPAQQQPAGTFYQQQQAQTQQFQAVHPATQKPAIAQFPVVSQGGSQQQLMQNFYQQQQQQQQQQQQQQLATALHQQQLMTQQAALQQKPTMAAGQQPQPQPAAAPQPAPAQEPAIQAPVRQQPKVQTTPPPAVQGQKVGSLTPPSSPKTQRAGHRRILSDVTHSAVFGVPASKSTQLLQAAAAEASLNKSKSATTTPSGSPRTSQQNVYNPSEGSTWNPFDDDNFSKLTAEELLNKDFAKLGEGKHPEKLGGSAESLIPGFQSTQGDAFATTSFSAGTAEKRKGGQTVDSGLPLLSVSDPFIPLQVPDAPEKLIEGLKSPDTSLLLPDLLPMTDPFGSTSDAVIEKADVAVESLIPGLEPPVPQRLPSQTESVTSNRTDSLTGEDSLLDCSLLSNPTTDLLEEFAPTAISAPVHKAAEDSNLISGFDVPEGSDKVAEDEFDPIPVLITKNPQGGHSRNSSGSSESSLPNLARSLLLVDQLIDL

IC50 ([1]; class symbols) [nM] | IC50 (AAK1; class symbols) [nM] | IC50 ([2]; class symbols) [nM] | IC50 ([3]; class symbols) [nM] | IC50 ([1]; numeric values) [nM] | IC50 (AAK1; numeric values) [nM] | IC50 ([2]; numeric values) [nM] | IC50 ([3]; numeric values) [nM] | Structure (SMILES)
501 to 1500 | > 1500 | 151 to 500 | > 1500 | – | – | – | – | Oc1ncccc1-c1cnn2ccc(N3CCNCC3)nc12 [Compound I-106, 3-(5-piperazin-1-ylpyrazolo[1,5-a]pyrimidin-3-yl)pyridin-2-ol]
51 to 150 | 501 to 1500 | 501 to 1500 | 501 to 1500 | – | – | – | – | CC(C)(C)OC(=O)NCCNc1nc2c(-c3cccnc3OC3CC3)cnn2cc1F [Compound I-124, tert-butyl N-[2-[[3-[2-(cyclopropoxy)-3-pyridyl]-6-fluoro-pyrazolo[1,5-a]pyrimidin-5-yl]amino]ethyl]carbamate]
1 to 50 | 501 to 1500 | 51 to 150 | 151 to 500 | – | – | – | – | CC(C)(C)OC(=O)NCCNc1ccc2ncc(-c3cccnc3OC3CC3)n2n1 [Compound I-129, tert-butyl N-[2-[[3-[2-(cyclopropoxy)-3-pyridyl]imidazo[1,2-b]pyridazin-6-yl]amino]ethyl]carbamate]
– | – | – | – | 8.68 | 157 | 84.6 | 1050 | COc1ncccc1-c1cnn2ccc(N3CCN(C(=O)OC4(C)COC4)CC3)nc12 [RC-1, (3-methyloxetan-3-yl)-4-[3-(2-methoxy-3-pyridyl)pyrazolo[1,5-a]pyrimidin-5-yl]piperazine-1-carboxylate, reference compound]
